Where a SMILES comes first, the peptide text is derived from it. Bridges are numbered along the chain shown (N, C = ends). [ ]: non-standard residue; d: D form. The star is where a group is joined. ξ: configuration not given here. Benzoyl(4-SiFtBu2) = CC(C)(C)[Si](F)(c1ccc(C(=O)*)cc1)C(C)(C)C; X1 = CC(C)(C)[Si](F)(c1ccc(C[N+](C)(C)CC(=O)*)cc1)C(C)(C)C; DO3AM = NC(=O)CN1CCN(CC(N)=O)CCN(CC(=O)*)CCN(CC(N)=O)CC1; ξW = NC(Cc1c[nH]c2ccccc12)C(=O)O; dDap = NC[C@@H](N)C(=O)O; ξF = NC(Cc1ccccc1)C(=O)O; ξD = NC(CC(=O)O)C(=O)O; ξDap = NCC(N)C(=O)O; ξC = NC(CS)C(=O)O
Columns and labels:
[1] = Octanol-water distribution coefficient (logD pH 7.4) of the labeled tracer; type: physicochemical; conditions: n-octanol/PBS pH 7.4, room temperature
Method: Approximately 1 MBq of the labeled tracer was dissolved in 1 mL of a 1:1 mixture (by volumes) of phosphate buffered saline (PBS, pH 7.4) and n-octanol in an Eppendorf tube. After vigorous mixing of the suspension for 3 minutes at room temperature, the vial was centrifuged at 15000 g for 5 minutes (Biofuge 15, Heraus Sepatech, Osterode, Germany) and 100 μL aliquots of both layers were measured in a gamma counter. The experiment was repeated at least six times.

[2] = target: HSA (Homo sapiens, UniProt P02768); experiment: HSA binding by RIAC method (gel filtration, apparent molecular weight); type: in vitro ADME; conditions: HSA binding as apparent molecular weight, 700 μM HSA in PBS mobile phase
HSA, sequence (P02768 25-609): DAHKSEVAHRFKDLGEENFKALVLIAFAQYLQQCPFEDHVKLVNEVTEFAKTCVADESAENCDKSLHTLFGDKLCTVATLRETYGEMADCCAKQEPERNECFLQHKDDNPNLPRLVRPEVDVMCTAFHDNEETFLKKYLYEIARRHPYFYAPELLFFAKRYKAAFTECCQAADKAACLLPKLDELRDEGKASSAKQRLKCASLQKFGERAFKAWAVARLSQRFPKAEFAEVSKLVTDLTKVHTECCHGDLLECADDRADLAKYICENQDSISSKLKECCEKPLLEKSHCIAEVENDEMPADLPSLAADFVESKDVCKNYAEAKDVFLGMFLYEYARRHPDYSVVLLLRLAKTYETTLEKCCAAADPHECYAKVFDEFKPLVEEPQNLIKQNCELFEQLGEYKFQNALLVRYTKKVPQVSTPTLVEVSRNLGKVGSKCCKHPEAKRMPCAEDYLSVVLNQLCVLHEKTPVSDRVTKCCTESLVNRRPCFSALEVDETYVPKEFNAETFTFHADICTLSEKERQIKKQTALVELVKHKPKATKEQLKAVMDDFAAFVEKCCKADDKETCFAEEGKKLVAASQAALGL
Method: A gel filtration column Superdex 75 Increase 10/300 GL (GE Healthcare, Uppsala, Sweden) was beforehand calibrated following the producer's recommendations with a commercially available gel filtration calibration kit (GE Healthcare, Buckinghamshire, UK) comprising conalbumin (MW: 75 kDa), ovalbumin (44 kDa), carbonic anhydrase (29 kDa), ribonuclease A (13.7 kDa) and aprotinin (6.5 kDa) as reference proteins of known molecular weight. AMSEC experiments were conducted using a constant flow rate of 0.8 mL/min at rt. A solution of HSA in PBS at physiological concentration (700 μM) was used as the mobile phase. SST2 ligands were labelled as described with molar activities of 10-20 GBq/μmol. Probes of 1.0 MBq of the radioligand were injected directly from the labelling solution. HSA binding was expressed as an apparent molecular weight MW calculated from the retention time of the radioligand using the determined calibration curve.
For evaluation, experimentally determined retention times tR are first converted into elution volumes Ve by multiplying with the flow rate and thereafter converted into partition coefficients Kav following the equation
where V0 is the column void volume (8.027 mL) and Vc is the geometric column volume (24 mL). Using the equation given by the trend line plot of the column calibration
the apparent molecular weight MW is calculated as […]

[3] = target: T1, SST2 (Homo sapiens, UniProt P30874); experiment: Determination of IC50: competitive binding against [125I]TOC on SST2-transfected CHO cells; conditions: [125I]TOC reference radioligand, 60 min room temperature
T1 construct: expressed in transfected cells; host or cells: CHO (Chinese hamster ovary) cells
T1 sequence (P30874 whole entry, species assumed): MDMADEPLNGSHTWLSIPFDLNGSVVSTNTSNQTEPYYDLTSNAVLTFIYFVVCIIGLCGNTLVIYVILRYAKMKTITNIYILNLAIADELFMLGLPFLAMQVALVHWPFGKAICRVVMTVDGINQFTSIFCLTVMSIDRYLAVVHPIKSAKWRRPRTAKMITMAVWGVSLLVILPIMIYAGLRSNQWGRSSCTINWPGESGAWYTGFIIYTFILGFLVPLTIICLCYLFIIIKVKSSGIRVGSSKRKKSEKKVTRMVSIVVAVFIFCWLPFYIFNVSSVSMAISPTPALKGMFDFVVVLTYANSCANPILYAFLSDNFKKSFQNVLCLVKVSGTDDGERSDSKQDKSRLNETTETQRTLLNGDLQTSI

Row | Compound | LogDpH=7.4 [1] | HSA [2] | IC50 [3] | LogDpH=7.4 ([1]; listed as 36)
1 | C[C@@H](O)[C@H](NC(=O)C1CSSCC(NC(=O)C(Cc2ccccc2)NC(=O)COCCOCCNC(=O)C(CC(=O)O)NC(=O)[C@@H](CC(=O)O)NC(=O)C(CNC(=O)CN2CCN(CC(=O)O)CCN(CC(=O)O)CCN(CC(=O)O)CC2)NC(=O)[C@@H](CN)NC(=O)c2ccc([Si](F)(C(C)(C)C)C(C)(C)C)cc2)C(=O)N[C@@H](Cc2ccc(O)cc2)C(=O)NC(Cc2c[nH]c3ccccc23)C(=O)N[C@@H](CCCCN)C(=O)N[C@@H]([C@@H](C)O)C(=O)N1)C(=O)O (stereo partly shown) (natGa complex, metal not drawn) [[Ga]23] | −1.86 ± 0.06 | 18.59 kDa |  | 
2 | C[C@@H](O)[C@H](NC(=O)C1CSSCC(NC(=O)C(Cc2ccccc2)NC(=O)CNC(=O)CNC(=O)[C@@H](CC(=O)O)NC(=O)C(CC(=O)O)NC(=O)[C@@H](CNC(=O)CN2CCN(CC(N)=O)CCN(CC(N)=O)CCN(CC(N)=O)CC2)NC(=O)C(CN)NC(=O)c2ccc([Si](F)(C(C)(C)C)C(C)(C)C)cc2)C(=O)N[C@@H](Cc2ccc(O)cc2)C(=O)NC(Cc2c[nH]c3ccccc23)C(=O)N[C@@H](CCCCN)C(=O)N[C@@H]([C@@H](C)O)C(=O)N1)C(=O)O (stereo partly shown) [Ligand 36] ({Benzoyl(4-SiFtBu2)}-[ξDap][dDap](DO3AM)[ξD][dD]GG[ξF][ξC]Y[ξW]KT[ξC]T-OH; disulfide 8-13) |  |  | 7.05 ± 1.61 nM | −1.41 ± 0.07
3 | C[C@@H](O)[C@H](NC(=O)C1CSSCC(NC(=O)C(Cc2ccccc2)NC(=O)CNC(=O)CNC(=O)[C@@H](CC(=O)O)NC(=O)C(CC(=O)O)NC(=O)[C@@H](CNC(=O)CN2CCN(CC(=O)O)CCN(CC(=O)O)CCN(CC(=O)O)CC2)NC(=O)C(CN)NC(=O)c2ccc([Si](F)(C(C)(C)C)C(C)(C)C)cc2)C(=O)N[C@@H](Cc2ccc(O)cc2)C(=O)NC(Cc2c[nH]c3ccccc23)C(=O)N[C@@H](CCCCN)C(=O)N[C@@H]([C@@H](C)O)C(=O)N1)C(=O)O (stereo partly shown) [[Ga]19] | −2.11 ± 0.04 | 21.17 kDa |  | 
4 | C[C@@H](O)[C@H](NC(=O)C1CSSCC(NC(=O)C(Cc2ccccc2)NC(=O)CNC(=O)CNC(=O)[C@@H](CC(=O)O)NC(=O)C(CC(=O)O)NC(=O)[C@@H](CNC(=O)CC[C@H](C(=O)O)N2CCN(CC(=O)O)CCN(CC(=O)O)CCN(CC(=O)O)CC2)NC(=O)C(CN)NC(=O)c2ccc([Si](F)(C(C)(C)C)C(C)(C)C)cc2)C(=O)N[C@@H](Cc2ccc(O)cc2)C(=O)NC(Cc2c[nH]c3ccccc23)C(=O)N[C@@H](CCCCN)C(=O)N[C@@H]([C@@H](C)O)C(=O)N1)C(=O)O (stereo partly shown) [[Ga]20] | −2.16 ± 0.04 | 21.49 kDa |  | 
5 | C[C@@H](O)[C@H](NC(=O)C1CSSCC(NC(=O)C(Cc2ccccc2)NC(=O)CNC(=O)CNC(=O)[C@@H](CC(=O)O)NC(=O)C(CC(=O)O)NC(=O)[C@@H](CNC(=O)CN2CCN(CC(=O)O)CCN(CC(=O)O)CCN(CC(=O)O)CC2)NC(=O)C[N+](C)(C)Cc2ccc([Si](F)(C(C)(C)C)C(C)(C)C)cc2)C(=O)N[C@@H](Cc2ccc(O)cc2)C(=O)NC(Cc2c[nH]c3ccccc23)C(=O)N[C@@H](CCCCN)C(=O)N[C@@H]([C@@H](C)O)C(=O)N1)C(=O)O (stereo partly shown) [[Ga]24] | −1.92 ± 0.03 | 8.77 kDa |  | 
6 | C[C@@H](O)[C@H](NC(=O)C1CSSCC(NC(=O)C(Cc2ccccc2)NC(=O)CNC(=O)CNC(=O)CNC(=O)C(CC(=O)O)NC(=O)[C@@H](CC(=O)O)NC(=O)C(CNC(=O)C[N+](C)(C)Cc2ccc([Si](F)(C(C)(C)C)C(C)(C)C)cc2)NC(=O)CN2CCN(CC(=O)O)CCN(CC(=O)O)CCN(CC(=O)O)CC2)C(=O)N[C@@H](Cc2ccc(O)cc2)C(=O)NC(Cc2c[nH]c3ccccc23)C(=O)N[C@@H](CCCCN)C(=O)N[C@@H]([C@@H](C)O)C(=O)N1)C(=O)O (stereo partly shown) [[Ga]44] | −2.06 ± 0.08 | 6.99 kDa |  | 
7 | C[C@@H](O)[C@H](NC(=O)C1CSSCC(NC(=O)C(Cc2ccccc2)NC(=O)CNC(=O)CNC(=O)CNC(=O)C(CC(=O)O)NC(=O)[C@@H](CC(=O)O)NC(=O)C(CCCCN)NC(=O)[C@@H](CNC(=O)C[N+](C)(C)Cc2ccc([Si](F)(C(C)(C)C)C(C)(C)C)cc2)NC(=O)CN2CCN(CC(=O)O)CCN(CC(=O)O)CCN(CC(=O)O)CC2)C(=O)N[C@@H](Cc2ccc(O)cc2)C(=O)NC(Cc2c[nH]c3ccccc23)C(=O)N[C@@H](CCCCN)C(=O)N[C@@H]([C@@H](C)O)C(=O)N1)C(=O)O (stereo partly shown) [[Ga]45] | −2.10 ± 0.04 | 7.76 kDa |  | 
8 | C[C@@H](O)[C@H](NC(=O)C1CSSCC(NC(=O)C(Cc2ccccc2)NC(=O)CNC(=O)CNC(=O)CNC(=O)C(CC(=O)O)NC(=O)[C@@H](CC(=O)O)NC(=O)C(CCCNC(N)=O)NC(=O)[C@@H](CNC(=O)C[N+](C)(C)Cc2ccc([Si](F)(C(C)(C)C)C(C)(C)C)cc2)NC(=O)CN2CCN(CC(=O)O)CCN(CC(=O)O)CCN(CC(=O)O)CC2)C(=O)N[C@@H](Cc2ccc(O)cc2)C(=O)NC(Cc2c[nH]c3ccccc23)C(=O)N[C@@H](CCCCN)C(=O)N[C@@H]([C@@H](C)O)C(=O)N1)C(=O)O (stereo partly shown) [[Ga]46] | −2.22 ± 0.03 | 6.81 kDa |  | 
9 | C[C@@H](O)[C@H](NC(=O)C1CSSCC(NC(=O)C(Cc2ccccc2)NC(=O)CNC(=O)CNC(=O)CNC(=O)C(CC(=O)O)NC(=O)[C@@H](CC(=O)O)NC(=O)C(CCC(=O)O)NC(=O)[C@@H](CNC(=O)C[N+](C)(C)Cc2ccc([Si](F)(C(C)(C)C)C(C)(C)C)cc2)NC(=O)CN2CCN(CC(=O)O)CCN(CC(=O)O)CCN(CC(=O)O)CC2)C(=O)N[C@@H](Cc2ccc(O)cc2)C(=O)NC(Cc2c[nH]c3ccccc23)C(=O)N[C@@H](CCCCN)C(=O)N[C@@H]([C@@H](C)O)C(=O)N1)C(=O)O (stereo partly shown) [[Ga]47] | −2.30 ± 0.02 | 7.66 kDa |  | 
10 | C[C@@H](O)[C@H](NC(=O)C1CSSCC(NC(=O)C(Cc2ccccc2)NC(=O)[C@@H](CC(N)=O)NC(=O)C(CC(N)=O)NC(=O)[C@@H](CC(=O)O)NC(=O)C(CC(=O)O)NC(=O)[C@@H](CNC(=O)CN2CCN(CC(=O)O)CCN(CC(=O)O)CCN(CC(=O)O)CC2)NC(=O)C[N+](C)(C)Cc2ccc([Si](F)(C(C)(C)C)C(C)(C)C)cc2)C(=O)N[C@@H](Cc2ccc(O)cc2)C(=O)NC(Cc2c[nH]c3ccccc23)C(=O)N[C@@H](CCCCN)C(=O)N[C@@H]([C@@H](C)O)C(=O)N1)C(=O)O (stereo partly shown) [[Ga]48] | −2.10 ± 0.05 | 8.11 kDa |  | 
11 | C[C@@H](O)[C@H](NC(=O)C1CSSCC(NC(=O)C(Cc2ccccc2)NC(=O)[C@@H](CC(N)=O)NC(=O)C(CC(N)=O)NC(=O)CNC(=O)C(CC(=O)O)NC(=O)[C@@H](CC(=O)O)NC(=O)C(CNC(=O)CN2CCN(CC(=O)O)CCN(CC(=O)O)CCN(CC(=O)O)CC2)NC(=O)C[N+](C)(C)Cc2ccc([Si](F)(C(C)(C)C)C(C)(C)C)cc2)C(=O)N[C@@H](Cc2ccc(O)cc2)C(=O)NC(Cc2c[nH]c3ccccc23)C(=O)N[C@@H](CCCCN)C(=O)N[C@@H]([C@@H](C)O)C(=O)N1)C(=O)O (stereo partly shown) [[Ga]49] | −2.16 ± 0.03 | 7.26 kDa |  | 
12 | C[C@@H](O)[C@H](NC(=O)C1CSSCC(NC(=O)C(Cc2ccccc2)NC(=O)CNC(=O)CNC(=O)CNC(=O)C(CC(=O)O)NC(=O)[C@@H](CC(=O)O)NC(=O)C(CNC(=O)CN2CCN(CC(=O)O)CCN(CC(=O)O)CCN(CC(=O)O)CC2)NC(=O)C[N+](C)(C)Cc2ccc([Si](F)(C(C)(C)C)C(C)(C)C)cc2)C(=O)N[C@@H](Cc2ccc(O)cc2)C(=O)NC(Cc2c[nH]c3ccccc23)C(=O)N[C@@H](CCCCN)C(=O)N[C@@H]([C@@H](C)O)C(=O)N1)C(=O)O (stereo partly shown) [[Ga]50] | −2.00 ± 0.12 | 8.18 kDa |  | 
13 | C[C@@H](O)[C@H](NC(=O)C1CSSCC(NC(=O)C(Cc2ccccc2)NC(=O)CNC(=O)CNC(=O)CNC(=O)C(CC(=O)O)NC(=O)[C@@H](CC(=O)O)NC(=O)C(CNC(=O)CN2CCN(CC(=O)O)CCN(CC(=O)O)CCN(CC(=O)O)CC2)NC(=O)[C@@H](CN)NC(=O)C[N+](C)(C)Cc2ccc([Si](F)(C(C)(C)C)C(C)(C)C)cc2)C(=O)N[C@@H](Cc2ccc(O)cc2)C(=O)NC(Cc2c[nH]c3ccccc23)C(=O)N[C@@H](CCCCN)C(=O)N[C@@H]([C@@H](C)O)C(=O)N1)C(=O)O (stereo partly shown) [[Ga]51] | −1.97 ± 0.01 | 8.71 kDa |  | 
14 | C[C@@H](O)[C@H](NC(=O)C1CSSCC(NC(=O)C(Cc2ccccc2)NC(=O)CNC(=O)CNC(=O)CNC(=O)C(CC(=O)O)NC(=O)[C@@H](CC(=O)O)NC(=O)C(CNC(=O)CN2CCN(CC(N)=O)CCN(CC(N)=O)CCN(CC(N)=O)CC2)NC(=O)C[N+](C)(C)Cc2ccc([Si](F)(C(C)(C)C)C(C)(C)C)cc2)C(=O)N[C@@H](Cc2ccc(O)cc2)C(=O)NC(Cc2c[nH]c3ccccc23)C(=O)N[C@@H](CCCCN)C(=O)N[C@@H]([C@@H](C)O)C(=O)N1)C(=O)O (stereo partly shown) [[Pb]54] (X1-[ξDap](DO3AM)[dD][ξD]GGG[ξF][ξC]Y[ξW]KT[ξC]T-OH; disulfide 8-13) | −1.86 ± 0.04 |  | 4.24 ± 0.68 nM | 
